Test results taken from patent publication US20230049952A1, “METHODS AND COMPOUNDS FOR RESTORING MUTANT P53 FUNCTION” (PMV Pharmaceuticals, Inc., priority 2020, published 2023).

System: human hepatocytes
Conditions: male, 72 h, 100 μM
Method: The human hepatocytes for CYP induction were obtained from three donors: one person; one person; and one person.
After attachment (4 hours), the medium was changed to fresh hepatocyte culture medium for overnight cell recovery. […] Vehicle controls were treated with hepatocyte culture medium containing the same content of organic solvent (0.1% DMSO). […] The absorbance of formazan, which is proportional to the number of viable cells, was measured spectrophotometrically using the CellTiter 96® AQueous One Solution Cell Proliferation Assay (MTS). The wells were rinsed with DPBS, and then hepatocyte culture medium (200 μL) and the CellTiter 96® AQueous One Solution Cell Proliferation Assay reagent (40 μL) were added to each well.

CN(C)CCCN1c2ccccc2Sc2ccc(Cl)cc21 [Chlorpromazine, chlorpromazine]
% MTS Absorbance Relative to Vehicle Control: 59.4% | Formazan Absorbance (n = 6) Mean: 0.174
